Paper PMC9851200, “Multiparameter phenotypic screening for endogenous TFEB and TFE3 translocation identifies novel chemical series modulating lysosome function” (Autophagy, 2022)

Tests used:
[1] = test system: endogenous TFEB; assay: TFEB nuclear translocation, immunocytochemistry high-content imaging; assay type: cell-based; details: PKIS2 primary screening; further: test concentration or dose not given here
[2] = test system: endogenous TFE3; assay: TFE3 nuclear translocation, immunocytochemistry high-content imaging; assay type: cell-based; details: PKIS2 primary screening; further: test concentration or dose not given here
[3] = test system: SH-SY5Y cells; details: PKIS2 primary screening; for DQ Intensity: DQ Red BSA intensity; for DQ Spot: DQ Red BSA spot count; on all read-outs here: reference of the scale not given here
[4] = test system: SH-SY5Y cells; assay: AK (adenylate kinase) release ToxiLight cytotoxicity assay; details: PKIS2 primary screening; further: reference of the scale not given here
[5] = test system: SH-SY5Y cells; assay: Nuclear count from microscopy images (cellular growth and toxicity); details: PKIS2 primary screening; further: reference of the scale not given here

CC(C)Nc1cc(-c2ccc3c(N)n[nH]c3c2)nc(N)n1 [GSK2221681]
TFEB % [1]: 4.14%
TFE3 % [2]: 7.71%
DQ Intensity [3]: 78.82
DQ Spot [3]: 81.03
AK [4]: 98.58
Nuclear Count [5]: 122.37

CNc1cc(-c2ccc3c(N)n[nH]c3c2)nc(N)n1 [GSK2224810]
TFEB % [1]: 4.15%
TFE3 % [2]: 7.03%
DQ Intensity [3]: 93.32
DQ Spot [3]: 95.12
AK [4]: 132.47
Nuclear Count [5]: 109.90

Nc1nc(Nc2ccccc2)cc(-c2ccc3c(N)n[nH]c3c2)n1 [GSK2225749]
TFEB % [1]: 8.82%
TFE3 % [2]: 13.67%
DQ Intensity [3]: 84.54
DQ Spot [3]: 97.02
AK [4]: 135.05
Nuclear Count [5]: 92.29

Nc1nc(-c2ccc3c(N)n[nH]c3c2)cc(N2CCCC2)n1 [GSK2227430]
TFEB % [1]: 3.47%
TFE3 % [2]: 14.08%
DQ Intensity [3]: 87.93
DQ Spot [3]: 104.79
AK [4]: 104.62
Nuclear Count [5]: 85.02

Nc1nc(-c2ccc3c(N)n[nH]c3c2)cc(N2CCCCC2)n1 [GSK2228768]
TFEB % [1]: 3.41%
TFE3 % [2]: 12.52%
DQ Intensity [3]: 114.62
DQ Spot [3]: 125.41
AK [4]: 117.34
Nuclear Count [5]: 85.37

CC(C)c1cc(-c2ccc3c(N)n[nH]c3c2)nc(N)n1 [GSK2250882]
TFEB % [1]: 3.86%
TFE3 % [2]: 20.48%
DQ Intensity [3]: 90.98
DQ Spot [3]: 110.65
AK [4]: 82.41
Nuclear Count [5]: 92.23

C[C@@H]1CCCCN1c1cc(-c2ccc3c(N)n[nH]c3c2)nc(N)n1 [GSK2258759]
TFEB % [1]: 3.40%
TFE3 % [2]: 12.52%
DQ Intensity [3]: 61.15
DQ Spot [3]: 84.49
AK [4]: 88.63
Nuclear Count [5]: 88.84

C[C@H]1CC[C@@H](C(=O)Nc2ccccc2)CN1c1cc(-c2ccc3c(N)n[nH]c3c2)nc(N)n1 [GSK2283293]
TFEB % [1]: 5.47%
TFE3 % [2]: 11.00%
DQ Intensity [3]: 68.06
DQ Spot [3]: 92.27
AK [4]: 101.77
Nuclear Count [5]: 95.91

C[C@@H]1CC[C@@H](C(=O)Nc2ccccc2)CN1c1cc(-c2ccc3c(N)n[nH]c3c2)nc(N)n1 [GSK2286062]
TFEB % [1]: 4.27%
TFE3 % [2]: 8.18%
DQ Intensity [3]: 74.11
DQ Spot [3]: 77.23
AK [4]: 87.26
Nuclear Count [5]: 138.15

CC(C)(C)OC(=O)NC1CCCN(c2cc(-c3ccc4c(N)n[nH]c4c3)nc(N)n2)C1 (stereo not drawn) [GSK2286096]
TFEB % [1]: 2.89%
TFE3 % [2]: 7.82%
DQ Intensity [3]: 137.35
DQ Spot [3]: 108.17
AK [4]: 116.95
Nuclear Count [5]: 128.62

Nc1nc(-c2ccc3c(N)n[nH]c3c2)cc(N2CCCC(NC(=O)c3ccccc3)C2)n1 (stereo not drawn) [GSK2286775]
TFEB % [1]: 4.25%
TFE3 % [2]: 13.75%
DQ Intensity [3]: 67.10
DQ Spot [3]: 83.48
AK [4]: 119.49
Nuclear Count [5]: 104.24

Nc1nc(-c2ccc3c(N)n[nH]c3c2)cc(N2CCC[C@@H](C(=O)Nc3ccccc3)C2)n1 [GSK2288359]
TFEB % [1]: 6.39%
TFE3 % [2]: 14.08%
DQ Intensity [3]: 83.69
DQ Spot [3]: 103.68
AK [4]: 96.03
Nuclear Count [5]: 88.88

C[C@@H]1CC[C@H](C(=O)NC2CCCCC2)CN1c1cc(-c2ccc3c(N)n[nH]c3c2)nc(N)n1 [GSK2291363]
TFEB % [1]: 3.73%
TFE3 % [2]: 16.02%
DQ Intensity [3]: 117.06
DQ Spot [3]: 112.54
AK [4]: 87.12
Nuclear Count [5]: 117.58

CNc1nc(-c2ccc3c(N)n[nH]c3c2)cc(N2C[C@@H](C(=O)Nc3ccccc3)CC[C@H]2C)n1 [GSK2298859]
TFEB % [1]: 6.90%
TFE3 % [2]: 12.86%
DQ Intensity [3]: 117.75
DQ Spot [3]: 109.70
AK [4]: 105.92
Nuclear Count [5]: 105.37

CNc1nc(-c2ccc3c(N)n[nH]c3c2)cc(N2C[C@@H](C(=O)NC3CCCCC3)OC[C@H]2C)n1 [GSK2375584]
TFEB % [1]: 4.51%
TFE3 % [2]: 6.46%
DQ Intensity [3]: 111.29
DQ Spot [3]: 104.60
AK [4]: 76.99
Nuclear Count [5]: 127.70

CC[C@@H]1CO[C@H](C(=O)Nc2ccccc2)CN1c1cc(-c2ccc3c(N)n[nH]c3c2)nc(NC)n1 [GSK2376236]
TFEB % [1]: 3.52%
TFE3 % [2]: 8.81%
DQ Intensity [3]: 102.90
DQ Spot [3]: 87.99
AK [4]: 114.69
Nuclear Count [5]: 121.19

Cc1cc(-c2ccc3c(c2)CC[C@@H](N[C@@H](C)c2ccccc2)C3)cnc1N [GW412617]
TFEB % [1]: 15.77%
TFE3 % [2]: 41.99%
DQ Intensity [3]: 86.08
DQ Spot [3]: 45.16
AK [4]: 35.11
Nuclear Count [5]: 101.83

Cc1cc(NCC(c2ccccc2)c2ccccc2)nc(NCc2ccc(C(F)(F)F)cc2)n1 [GW497681]
TFEB % [1]: 10.26%
TFE3 % [2]: 31.99%
DQ Intensity [3]: 118.39
DQ Spot [3]: 90.21
AK [4]: 143.14
Nuclear Count [5]: 83.96

Cc1ccc(Nc2ccnc(Nc3ccc4c(c3)CS(=O)(=O)C4)n2)cc1O [GW579362]
TFEB % [1]: 7.59%
TFE3 % [2]: 18.94%
DQ Intensity [3]: 160.36
DQ Spot [3]: 117.73
AK [4]: 117.18
Nuclear Count [5]: 72.17

Cc1ccc(Nc2ccnc(Nc3ccc(C)c(F)c3)n2)cc1O [GW582868]
TFEB % [1]: 8.86%
TFE3 % [2]: 12.77%
DQ Intensity [3]: 80.99
DQ Spot [3]: 94.80
AK [4]: 95.37
Nuclear Count [5]: 87.67

CCS(=O)(=O)c1ccc(OC)c(Nc2ncc(-c3ccc(F)cc3)o2)c1 [GW591947]
TFEB % [1]: 4.85%
TFE3 % [2]: 8.80%
DQ Intensity [3]: 82.17
DQ Spot [3]: 99.73
AK [4]: 64.95
Nuclear Count [5]: 114.66

CC(C)S(=O)(=O)N1CCN(Cc2ccc3c(c2)nc(NC(=O)c2ccsc2)n3C[C@H](O)c2ccccc2)CC1 [GW635815]
TFEB % [1]: 6.81%
TFE3 % [2]: 6.25%
DQ Intensity [3]: 100.23
DQ Spot [3]: 98.01
AK [4]: 78.91
Nuclear Count [5]: 125.41

N#CCc1ccc(Nc2nccc(Nc3ccc(Oc4ccccc4)cc3)n2)cc1 [GW639905]
TFEB % [1]: 8.66%
TFE3 % [2]: 15.01%
DQ Intensity [3]: 108.02
DQ Spot [3]: 113.65
AK [4]: 115.45
Nuclear Count [5]: 107.11

COC(=O)Nc1nc2ccc(Oc3ccc(NC(=O)Nc4cc(C(F)(F)F)ccc4F)cc3)cc2[nH]1 [GW654607]
TFEB % [1]: 5.38%
TFE3 % [2]: 33.87%
DQ Intensity [3]: 53.63
DQ Spot [3]: 73.16
AK [4]: 90.67
Nuclear Count [5]: 81.29

NC(=O)c1cccc(Nc2nccc(Nc3ccc(Oc4cccc(Cl)c4)c(Cl)c3)n2)c1 [GW659008]
TFEB % [1]: 11.92%
TFE3 % [2]: 11.36%
DQ Intensity [3]: 100.37
DQ Spot [3]: 103.30
AK [4]: 92.69
Nuclear Count [5]: 86.88

NC(=O)c1cccc(Nc2nccc(Nc3ccc(Oc4c(Cl)cccc4Cl)c(Cl)c3)n2)c1 [GW659009]
TFEB % [1]: 6.80%
TFE3 % [2]: 20.40%
DQ Intensity [3]: 60.26
DQ Spot [3]: 79.24
AK [4]: 74.50
Nuclear Count [5]: 101.88

O=C(NCCCN1CCOCC1)c1cccc(Nc2nccc(Nc3ccc(Oc4ccccc4)cc3)n2)c1 [GW663929]
TFEB % [1]: 4.62%
TFE3 % [2]: 16.30%
DQ Intensity [3]: 88.80
DQ Spot [3]: 80.91
AK [4]: 108.46
Nuclear Count [5]: 103.04

COC(=O)Nc1nc2ccc(Oc3ccc(CC(=O)Nc4cc(C(F)(F)F)ccc4F)cc3)cc2[nH]1 [GW680903]
TFEB % [1]: 2.10%
TFE3 % [2]: 12.77%
DQ Intensity [3]: 59.92
DQ Spot [3]: 85.78
AK [4]: 72.57
Nuclear Count [5]: 109.57

COC(=O)Nc1nc2ccc(Oc3ccc(NC(=O)Nc4cc(C(F)(F)F)ccc4F)cn3)cc2[nH]1 [GW681170]
TFEB % [1]: 3.10%
TFE3 % [2]: 18.59%
DQ Intensity [3]: 102.17
DQ Spot [3]: 112.93
AK [4]: 96.18
Nuclear Count [5]: 116.32

Cc1n[nH]c2cc(Nc3ccnc(Nc4cccc(CN5CCOCC5)c4)n3)ccc12 [GW682569]
TFEB % [1]: 6.60%
TFE3 % [2]: 9.15%
DQ Intensity [3]: 93.91
DQ Spot [3]: 112.57
AK [4]: 83.50
Nuclear Count [5]: 85.02

O=C(Nc1ccc(Oc2ccc3nc(NC(=O)c4ccco4)[nH]c3c2)cc1)Nc1cc(C(F)(F)F)ccc1F [GW683134]
TFEB % [1]: 14.35%
TFE3 % [2]: 30.65%
DQ Intensity [3]: 82.17
DQ Spot [3]: 71.77
AK [4]: 83.90
Nuclear Count [5]: 71.64

COC(=O)Nc1nc2ccc(Oc3ccc(NC(=O)Nc4cc(C(F)(F)F)ccc4F)cc3)cc2n1C [GW692089]
TFEB % [1]: 7.12%
TFE3 % [2]: 18.60%
DQ Intensity [3]: 156.96
DQ Spot [3]: 122.99
AK [4]: 128.42
Nuclear Count [5]: 60.83

COC(=O)Nc1nc2ccc(Oc3ccc(NC(=O)Nc4cc(C(F)(F)F)ccc4Cl)cc3)cc2[nH]1 [GW697465]
TFEB % [1]: 5.88%
TFE3 % [2]: 30.84%
DQ Intensity [3]: 71.39
DQ Spot [3]: 100.12
AK [4]: 89.89
Nuclear Count [5]: 70.87

COC(=O)Nc1nc2ccc(Oc3ccc(NC(=O)Nc4cccc(SC)c4)cc3)cc2[nH]1 [GW697999]
TFEB % [1]: 5.11%
TFE3 % [2]: 19.88%
DQ Intensity [3]: 145.78
DQ Spot [3]: 122.82
AK [4]: 75.30
Nuclear Count [5]: 71.32
